This passage reports % of control and % of inhibition results from ChEMBL document CHEMBL5465560, “Selectivity Literature for EUbOPEN Chemogenomic Library” (2024).

For test [1], the target named is T1, MAP/microtubule affinity-regulating kinase 4 (Homo sapiens) (UniProt Q96L34).
T1 sequence (whole entry): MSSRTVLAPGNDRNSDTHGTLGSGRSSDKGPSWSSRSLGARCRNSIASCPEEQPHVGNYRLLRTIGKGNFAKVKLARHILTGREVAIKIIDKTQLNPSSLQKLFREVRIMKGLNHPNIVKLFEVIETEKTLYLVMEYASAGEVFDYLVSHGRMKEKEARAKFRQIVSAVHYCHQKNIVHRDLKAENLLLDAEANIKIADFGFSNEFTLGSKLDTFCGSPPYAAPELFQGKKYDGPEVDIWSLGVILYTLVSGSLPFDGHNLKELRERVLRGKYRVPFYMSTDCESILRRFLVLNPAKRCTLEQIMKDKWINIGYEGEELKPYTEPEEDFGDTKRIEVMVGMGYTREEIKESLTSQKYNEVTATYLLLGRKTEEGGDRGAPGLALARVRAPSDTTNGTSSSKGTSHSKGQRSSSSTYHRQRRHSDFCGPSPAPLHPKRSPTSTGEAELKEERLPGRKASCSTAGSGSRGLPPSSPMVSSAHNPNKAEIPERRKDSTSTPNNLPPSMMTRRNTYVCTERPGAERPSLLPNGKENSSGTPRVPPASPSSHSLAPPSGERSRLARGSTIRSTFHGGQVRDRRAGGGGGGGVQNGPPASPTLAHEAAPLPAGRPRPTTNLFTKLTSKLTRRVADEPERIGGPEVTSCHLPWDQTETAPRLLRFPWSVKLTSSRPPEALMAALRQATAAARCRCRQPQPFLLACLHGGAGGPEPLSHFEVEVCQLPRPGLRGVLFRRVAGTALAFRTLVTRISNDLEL
In words: Selectivity interaction (KinomeScan (DiscoverX)) EUB0001079a MARK4. The following applies: at 1 µM.

The target in test [2] is Dual specificity protein kinase CLK3 (Homo sapiens, UniProt P49761).
The target of test [3] is T2, Cyclin-G-associated kinase (Homo sapiens) (UniProt O14976).
T2 sequence (whole entry): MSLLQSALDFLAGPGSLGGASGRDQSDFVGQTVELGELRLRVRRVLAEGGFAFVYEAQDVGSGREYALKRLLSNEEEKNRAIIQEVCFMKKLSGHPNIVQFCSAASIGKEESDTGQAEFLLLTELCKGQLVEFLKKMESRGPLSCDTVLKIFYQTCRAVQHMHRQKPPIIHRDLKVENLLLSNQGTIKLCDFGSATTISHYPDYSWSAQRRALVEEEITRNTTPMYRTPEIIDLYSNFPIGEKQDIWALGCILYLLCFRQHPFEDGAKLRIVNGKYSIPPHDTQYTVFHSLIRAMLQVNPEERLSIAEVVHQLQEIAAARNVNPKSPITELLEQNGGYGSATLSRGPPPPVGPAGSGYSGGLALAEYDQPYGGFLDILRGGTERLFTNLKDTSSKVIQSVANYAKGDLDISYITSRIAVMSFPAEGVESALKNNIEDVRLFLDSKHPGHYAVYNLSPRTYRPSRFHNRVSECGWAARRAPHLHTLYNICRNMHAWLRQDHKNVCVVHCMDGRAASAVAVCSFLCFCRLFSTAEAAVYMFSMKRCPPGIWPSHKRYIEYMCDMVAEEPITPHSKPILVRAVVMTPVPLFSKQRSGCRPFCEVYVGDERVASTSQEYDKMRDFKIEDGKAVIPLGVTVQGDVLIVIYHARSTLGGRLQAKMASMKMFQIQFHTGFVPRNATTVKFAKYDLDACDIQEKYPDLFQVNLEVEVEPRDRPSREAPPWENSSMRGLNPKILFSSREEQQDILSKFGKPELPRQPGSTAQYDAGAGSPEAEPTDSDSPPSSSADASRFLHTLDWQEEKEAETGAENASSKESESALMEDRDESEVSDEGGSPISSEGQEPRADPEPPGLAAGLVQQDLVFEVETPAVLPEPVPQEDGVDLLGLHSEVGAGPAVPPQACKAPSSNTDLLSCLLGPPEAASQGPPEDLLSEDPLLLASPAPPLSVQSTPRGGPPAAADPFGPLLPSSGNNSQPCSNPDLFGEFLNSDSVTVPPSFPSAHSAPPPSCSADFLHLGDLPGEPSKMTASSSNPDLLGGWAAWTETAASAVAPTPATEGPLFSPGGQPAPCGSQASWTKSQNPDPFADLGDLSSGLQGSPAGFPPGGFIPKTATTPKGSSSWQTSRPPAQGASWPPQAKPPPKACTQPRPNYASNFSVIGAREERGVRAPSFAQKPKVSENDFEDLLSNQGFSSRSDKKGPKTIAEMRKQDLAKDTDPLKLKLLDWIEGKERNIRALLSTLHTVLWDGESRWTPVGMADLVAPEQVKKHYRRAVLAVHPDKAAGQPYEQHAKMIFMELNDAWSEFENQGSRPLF
The conditions noted are these: at 10 µM.

The target of test [4] is RAC-alpha serine/threonine-protein kinase (Homo sapiens, UniProt P31749). Briefly: Selectivity interaction (KinomeScan (DiscoverX)) EUB0001049a AKT1. The conditions noted are these: at 1 µM.
Test [5] addresses T3, Serine/threonine-protein kinase 4 (Homo sapiens) (UniProt Q13043).
T3 sequence (whole entry): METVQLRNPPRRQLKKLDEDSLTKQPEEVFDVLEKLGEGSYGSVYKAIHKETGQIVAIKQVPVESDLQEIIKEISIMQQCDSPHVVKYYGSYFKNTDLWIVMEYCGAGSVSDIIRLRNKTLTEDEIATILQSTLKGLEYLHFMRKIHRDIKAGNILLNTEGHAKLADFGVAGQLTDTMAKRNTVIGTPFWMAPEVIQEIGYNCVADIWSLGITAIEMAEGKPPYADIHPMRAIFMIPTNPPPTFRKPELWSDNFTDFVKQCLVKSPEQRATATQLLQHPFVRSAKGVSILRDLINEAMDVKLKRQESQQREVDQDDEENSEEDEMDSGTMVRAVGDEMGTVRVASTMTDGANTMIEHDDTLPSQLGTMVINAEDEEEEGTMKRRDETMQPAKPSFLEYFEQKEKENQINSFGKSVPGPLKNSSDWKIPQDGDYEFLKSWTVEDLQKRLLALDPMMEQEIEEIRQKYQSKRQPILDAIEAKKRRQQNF
Briefly: Selectivity interaction (KinomeScan (DiscoverX)) EUB0001049a STK4. The conditions noted are these: at 1 µM.

The target of test [6] is P2X purinoceptor 1 (Homo sapiens) (UniProt P51575). In words: Selectivity interaction (Eurofins CEREP Diversity Profile (receptors and ion channels)) EUB0000279b P2RX1. The following applies: at 10 µM.
Test [7] addresses Serine/threonine-protein kinase MARK1 (Homo sapiens) (UniProt Q9P0L2). In words: Selectivity interaction (KinomeScan (DiscoverX)) EUB0000092b MARK1. The following applies: at 10 µM.

Sequence of RAC-alpha serine/threonine-protein kinase (P31749 whole entry): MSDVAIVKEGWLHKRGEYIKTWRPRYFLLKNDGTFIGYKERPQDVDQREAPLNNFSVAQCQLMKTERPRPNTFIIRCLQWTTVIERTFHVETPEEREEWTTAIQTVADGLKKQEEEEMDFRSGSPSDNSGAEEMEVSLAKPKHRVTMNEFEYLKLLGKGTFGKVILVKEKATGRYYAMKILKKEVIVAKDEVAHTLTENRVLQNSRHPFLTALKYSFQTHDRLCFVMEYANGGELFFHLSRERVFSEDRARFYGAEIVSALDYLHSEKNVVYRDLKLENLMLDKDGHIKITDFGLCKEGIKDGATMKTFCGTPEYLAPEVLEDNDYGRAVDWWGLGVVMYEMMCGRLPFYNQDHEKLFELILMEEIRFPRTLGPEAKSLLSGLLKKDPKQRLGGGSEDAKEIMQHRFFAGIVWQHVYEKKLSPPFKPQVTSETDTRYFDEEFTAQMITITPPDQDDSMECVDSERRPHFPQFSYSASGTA
Sequence of Serine/threonine-protein kinase MARK1 (Homo sapiens) (Q9P0L2 whole entry, looked up): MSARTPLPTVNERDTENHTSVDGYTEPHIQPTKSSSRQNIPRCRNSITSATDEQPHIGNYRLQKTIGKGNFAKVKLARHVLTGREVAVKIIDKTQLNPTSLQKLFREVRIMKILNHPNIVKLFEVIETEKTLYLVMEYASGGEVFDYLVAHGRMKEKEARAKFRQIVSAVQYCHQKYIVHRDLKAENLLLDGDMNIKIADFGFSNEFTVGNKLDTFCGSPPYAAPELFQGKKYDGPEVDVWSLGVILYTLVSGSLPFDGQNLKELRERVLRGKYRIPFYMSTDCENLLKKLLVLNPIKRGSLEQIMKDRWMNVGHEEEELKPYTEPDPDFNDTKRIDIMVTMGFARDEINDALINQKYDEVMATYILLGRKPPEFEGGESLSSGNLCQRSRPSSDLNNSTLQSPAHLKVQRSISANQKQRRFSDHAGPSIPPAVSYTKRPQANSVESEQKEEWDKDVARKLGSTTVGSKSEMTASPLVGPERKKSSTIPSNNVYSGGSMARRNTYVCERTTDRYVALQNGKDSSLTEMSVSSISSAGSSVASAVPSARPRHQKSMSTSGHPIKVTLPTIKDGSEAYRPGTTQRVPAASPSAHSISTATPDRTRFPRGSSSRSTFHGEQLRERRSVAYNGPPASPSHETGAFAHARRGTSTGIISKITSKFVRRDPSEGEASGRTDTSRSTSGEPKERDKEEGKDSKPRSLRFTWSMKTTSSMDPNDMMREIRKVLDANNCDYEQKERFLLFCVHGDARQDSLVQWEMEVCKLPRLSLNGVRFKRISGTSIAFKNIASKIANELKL
Sequence of Dual specificity protein kinase CLK3 (P49761 whole entry, looked up): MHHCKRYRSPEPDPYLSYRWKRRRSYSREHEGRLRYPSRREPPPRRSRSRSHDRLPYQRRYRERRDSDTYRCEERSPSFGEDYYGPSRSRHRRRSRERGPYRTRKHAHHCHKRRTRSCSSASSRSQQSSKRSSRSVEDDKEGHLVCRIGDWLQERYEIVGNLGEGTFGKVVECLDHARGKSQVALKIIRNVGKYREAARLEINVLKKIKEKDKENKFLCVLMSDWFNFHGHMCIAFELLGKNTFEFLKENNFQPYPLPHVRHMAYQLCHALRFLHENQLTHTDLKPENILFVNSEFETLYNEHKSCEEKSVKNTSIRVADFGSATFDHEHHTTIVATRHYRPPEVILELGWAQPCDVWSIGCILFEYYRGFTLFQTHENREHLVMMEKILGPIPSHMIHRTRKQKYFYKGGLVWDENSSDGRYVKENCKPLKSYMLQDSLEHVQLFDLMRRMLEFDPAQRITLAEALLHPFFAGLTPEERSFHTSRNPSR
Sequence of P2X purinoceptor 1 (Homo sapiens) (P51575 whole entry): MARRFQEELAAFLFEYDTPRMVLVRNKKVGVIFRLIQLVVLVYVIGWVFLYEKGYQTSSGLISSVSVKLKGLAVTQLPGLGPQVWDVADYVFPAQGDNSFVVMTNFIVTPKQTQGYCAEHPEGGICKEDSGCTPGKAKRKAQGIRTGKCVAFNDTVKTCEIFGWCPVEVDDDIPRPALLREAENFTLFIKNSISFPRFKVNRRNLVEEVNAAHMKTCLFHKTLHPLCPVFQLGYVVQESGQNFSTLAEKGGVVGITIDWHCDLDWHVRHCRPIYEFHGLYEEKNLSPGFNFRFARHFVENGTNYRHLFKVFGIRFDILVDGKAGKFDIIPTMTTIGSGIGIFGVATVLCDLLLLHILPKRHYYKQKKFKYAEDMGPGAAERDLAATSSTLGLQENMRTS

`Nc1cnc(N2CCc3cc(S(=O)(=O)Nc4c(F)cc(Cl)cc4F)cc(N4CCCC4=O)c32)nc1` [TP-020n] yielded a % of control in test [1] of 79%.

In test [2], `Cc1cnc(Nc2ccc(F)cc2Cl)nc1-c1c[nH]c(C(=O)N[C@H](CO)c2cccc(Cl)c2)c1` returned a % of inhibition of 9%. `CCN(CC)CCCCNc1ncc2cc(-c3cc(OC)cc(OC)c3)c(NC(=O)NC(C)(C)C)nc2n1` had a % of control in test [3] of 100%.

As to `COc1cc(Nc2nc(C)cc(-c3cnn4nc(OC)ccc34)n2)cc(C(F)(F)F)c1`, the values for the % of control in test [4] and in test [5] were 100% and 85%, respectively. Turning to `CC(=O)c1cc(-c2ccccc2OCC2CC2)c2ncccn12`, the % of control in test [6] was determined as 89%. On to `CCC(=O)N1CCN(c2ccc(-n3c(=O)ccc4cnc5ccc(-c6cnc7ccccc7c6)cc5c43)cc2C(F)(F)F)CC1`, for which the % of control in test [7] turned out to be 100%.
